The source of these data is patent US20190208778A1, “INSECT REPELLENT SURFACE COMPOSITION” (ENVANCE TECHNOLOGIES, LLC, priority 2012, published 2019).

For the test, the system named is Musca domestica. Put plainly: House fly surface repellent bioassay (treated floor tile bait stations). To be noted: house flies. It is filed as in vivo. Here is the method:
100 adult house flies (Musca domestica) were placed into the assay then exposed to treated bait stations, a control and test treatment. Fly response to the bait stations were recorded at predetermined time points with a video camera. Percent repellency was calculated and comparisons between treatments were made. All test house fly specimens were taken from in-house laboratory reared colonies, and were confirmed alive and in good condition prior to testing. No specimens showing any visible signs of stress, physical damage or pathogen infection were used in the study. When applicable a 1:1 male to female sex ratio was used to ensure equal susceptibility. The test arena was assembled and prepared prior to test initiation. The test arena consisted of a large 73.66 cm×73.66 cm×73.66 cm PVC frame work fitted with Thrips screening. At the top of the enclosed arena a USB powered video camera was suspended and centered over a 62.87 cm×62.87 cm section of white ceiling tile divided (marked with pencil) into equal quadrants. The bait stations were constructed as follows: A 1⁄4'' diameter hole was drilled in the center of a 10.8 cm by 10.8 cm white glazed clay tile. A 50 ml Falcon tube cap was affixed to the bottom of the tile over the hole to create a reservoir for the bait to be contained. Bait was pipetted into the reservoir then a cotton wick in inserted into the hole preventing flies from entering the reservoir and allowing bait to wick to the surface. The bait was at a 4:1:1 ratio of water, sugar, and coffee creamer. The chemical application method was as follows: Material was pipette applied to tile surface and allowed approximately 1 hour to dry. The chemical volume applied was 34 μl. Fly specimens were exposed for 24 hours. Assays were performed with a minimum of three replicates. The Tyra Tech Insect repellent surface cleaning/washing composition was comprised of 14.8% Active Ingredient (AI) blend and 85.2% other ingredients. It was confirmed that video cameras were appropriately viewing the center of the ceiling tile with a computer and computer program (such as […]). Flies were anesthetized with CO2 and then 100 flies were placed into a clean container. Insects were allowed to recover and acclimate to testing conditions for 1 hour prior to test initiation by placing and opening container with flies into assembled assay arena and allowing flies to disperse. All surfaces of bait station were cleaned with ethanol and allowed to dry. A pipette were used to treat the tile surface with the test material and treatment was spread over entire surface with pipette tip; material was allowed to dry for approximately 1 hour prior to test initiation. When dry, 5 ml of bait was pipetted into the reservoir. A cotton wick was inserted into the hole to ensuring that the top of the wick sits flush with the tile surface. A treated and a control bait station was placed into the test arena, one each centered within a randomly designated quadrant opposite of each other into a testing arena. Cameras were allowed to capture fly response over a 24 hour time period. Images were transferred to computer and data were analyzed. Photos were taken at each of the following time points: 15 minutes, 30 minutes, 1, 2, 3, 4, 5, 6, 7, 8, 12, 18 and 24 hours post introduction of treatment. At the conclusion of the test the image files were reviewed and the number of flies at each bait station was counted and recorded for both treatment and control. Average percent repellency was used as a standard measure of repellency of the treatments against insect species. Percent repellency was calculated for each treatment replicate by the following formula: Mean percent repellency for each treatment based on the data of the replicates at the given observation time points: Repellency between treatments was then compared using SAS version 9.3 to calculate the repeated measures ANOVA with time as repeated measure. Tukey's correction was used to ensure a remained at 0.05.

For the compound `CCN(CC)C(=O)c1cccc(C)c1` [DEET], the “Average mean percent repellency over 24 hours” value was 57.1% and the “Median mean percent repellency over 24 hours” value is recorded as 61.3%. For the setting “repeated measures ANOVA, Tukey's correction”, the “statistical comparison of repellency between treatments” value is “significantly less repellent than any other treatment”. This compound came in with a mean percent repellency (time 0.25 h post introduction) of 66.7%. For the same compound, the mean percent repellency (time 1 h) is 75.0%. Further, the mean percent repellency (time 2 h) worked out at 0.0%. Moreover, the mean percent repellency (time 3 h) was determined as 50.0%. Where the note is “time 4 h”, this compound had a mean percent repellency of 50.0%. In addition, for the setting “time 5 h”, the mean percent repellency was 62.5%. For the same compound, the mean percent repellency (time 6 h) amounted to 22.2%. Under “time 7 h”, this compound yielded a mean percent repellency of 60.0%. This compound also yielded a mean percent repellency (time 8 h) of 70.6%. The same compound had a mean percent repellency (time 12 h) of 44.4%. For the setting “time 18 h”, this compound had a mean percent repellency of 83.3%. The same compound gave a mean percent repellency (time 24 h) of 100.0%.
